Consider two compounds from patent US10538442B2, “Water treatment” (priority 2015, dated 2020).

The subject of test [1] is Desulfovibrio vulgaris. Briefly: Log 10 reduction of viable count of anaerobic bacterium in dosed suspension (serial dilution into API RP 38 media vials). Format: cell-based. As to conditions: for Log 10 Reduction Anaerobes: TDS 30,000 mg l^-1, 5 = complete kill; for effectiveness against anaerobes (in words): short contact times, summary of Table 1, combination compared with chlorine dioxide alone. As to the method:
(§1) A suspension of Desulfovibrio vulgaris plus Enterobacter aerogenes bacteria containing from 1×10^5 to 1×10^6 cells/mL was prepared in sterile pH 8 phosphate buffer containing sodium chloride to give the desired total dissolved solids (TDS) concentration. Aliquots of this suspension were dosed with the indicated concentrations of the compounds (a) and (b) with the concentrations being measured as ppm by weight of the stated composition in the dosed suspension. The mixtures were allowed to stand at room temperature. At the designated contact times, each mixture was sampled to determine the total number of viable cells of both Desulfovibrio vulgaris and Enterobacter aerogenes by serial 10-fold dilution into API RP 38 media vials and anaerobic acid producing media vials, respectively. The vials were incubated at 37° C. for 72 hours. Results were recorded as log10 reduction in the viable count versus the control.
(§2) Aqueous media inoculated with anaerobe and aerobe culture and having a TDS of 30,000 mg l^−1 was treated with treatment agents comprising: (i) tri n-butyl n-tetradecyl phosphonium chloride (TTPC); (ii) chlorine dioxide; or (ill) a combination of TTPC and chlorine dioxide.
(§3) TTPC was used in the form of Bellacide 350, an aqueous composition of TTPC and water consisting of water and 50% by weight of TTPC available from BWA Water Additives.
(§4) Chlorine dioxide was used in the form of CDG Solution 3000 a 0.3% aqueous solution of chlorine dioxide available from CDG Environmental, LLC.
(§5) The efficacy of the treatment agents was evaluated by measuring the Log 10 Reduction of the anaerobic bacterium Desulfovibrio vulgaris and the facultative anaerobic bacterium Enterobacter aerogenes after contact times of 10 minutes, 30 minutes and 60 minutes as detailed in Table 1. For TTPC the stated ppm value relates to the amount of TTPC added (active). For the chlorine dioxide the stated ppm relates to the amount of free residual of chlorine dioxide.

Test [2] deals with Enterobacter aerogenes. Nature of the test: Log 10 reduction of viable count of facultative anaerobic bacterium in dosed suspension (serial dilution into anaerobic acid producing media vials). Format: cell-based. Conditions: for Log 10 Reduction Facultative Anaerobes: TDS 30,000 mg l^-1, 6 = complete kill; for effectiveness against aerobes (in words): short contact times, summary of Table 1, combination compared with chlorine dioxide alone. As to the method: as §1, §2, §3, §4, §5

Setting [3] is: contact time 10 minutes, chlorine dioxide 0.25 ppm free residual.
The mark [4] stands for this setting: contact time 10 minutes, chlorine dioxide 0.5 ppm free residual.
Where [5] appears, read: contact time 30 minutes, chlorine dioxide 0.25 ppm free residual.
Where [6] appears, read: contact time 30 minutes, chlorine dioxide 0.5 ppm free residual.
The mark [7] stands for this setting: contact time 60 minutes, chlorine dioxide 0.25 ppm free residual.
[8] abbreviates: contact time 60 minutes, chlorine dioxide 0.5 ppm free residual.
The mark [9] stands for this setting: contact time 10 minutes, TTPC 3.125 ppm active.
[10] abbreviates: contact time 10 minutes, TTPC 6.25 ppm active.
Where [11] appears, read: contact time 30 minutes, TTPC 3.125 ppm active.
Setting [12] is: contact time 30 minutes, TTPC 6.25 ppm active.
The mark [13] stands for this setting: contact time 60 minutes, TTPC 3.125 ppm active.
[14] abbreviates: contact time 60 minutes, TTPC 6.25 ppm active.

Turning to `[O][Cl+][O-]` [chlorine dioxide], the “Log 10 Reduction Anaerobes” value in test [1] (setting [3]) was 3; in test [1] (setting [4]), 4; in test [1] (setting [5]) it was 3; in test [1] (setting [6]), 5; in test [1] (setting [7]) it was 3; in test [1] (setting [8]) it was 5. Besides, the “effectiveness against anaerobes (in words)” value in test [1] is given as “effective”. The “Log 10 Reduction Facultative Anaerobes” value in test [2] (setting [3]) is given as 3; in test [2] (setting [4]) it was 6; in test [2] (setting [5]), 3; in test [2] (setting [6]), 6; in test [2] (setting [7]), 3; in test [2] (setting [8]) it was 6. For the same compound, in test [2], the “effectiveness against aerobes (in words)” value is recorded as “effective”.

Consider `CCCCCCCCCCCCCC[P+](CCCC)(CCCC)CCCC.[Cl-]` [TTPC, tri n-butyl n-tetradecyl phosphonium chloride], for which the “Log 10 Reduction Anaerobes” value in test [1] (setting [9]) is given as 0; in test [1] (setting [10]) it was 0; in test [1] (setting [11]) it was 0; in test [1] (setting [12]) it was 2; in test [1] (setting [13]), 0; in test [1] (setting [14]), 5. For the same compound, in test [1], the “effectiveness against anaerobes (in words)” value was “ineffective”. The “Log 10 Reduction Facultative Anaerobes” value in test [2] (setting [9]) turned out to be 0; in test [2] (setting [10]), 0; in test [2] (setting [11]), 0; in test [2] (setting [12]), 1; in test [2] (setting [13]), 0; in test [2] (setting [14]) it was 1. Moreover, the “effectiveness against aerobes (in words)” value in test [2] is on record as “ineffective”.
